The supplement of paper PMC11451515

What was measured:
Details in all cases: 48 h
[1] = test system: NOMO1; assay: cell viability relative to DMSO control; higher = less cytotoxic
Outline: (§1)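 Library compounds in DMSO were pin-dosed into 1536-well plates (5 μl) holding NOMO1 or SEM (500 cells/well) or P12-Ichikawa (1000 cells/well) leukemia cells, across an 11-point threefold series of 47 μM to 0.79 nM. Each cell line had been adapted for at least four passages in each medium. CellTiter-Glo One luminescence was read after 48 h at 37°C. Viability is the per-plate percentage relative to DMSO wells, with cell-free wells as background.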

[2] = test system: P12-Ichikawa; assay: as above
Outline: as §1

[3] = test system: SEM cells; assay: as above
Outline: as §1

[4] = test system: NOMO1; assay: AUC of viability dose-response curve (% viability x log10 dose units); higher = less sensitive
Outline: (§2)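 Medium-adapted leukemia cells in 1536-well plates, at 500 or 1000 cells/well, were incubated for 48 h at 37°C with library compounds in DMSO at 11 threefold doses from 47 μM to 0.79 nM. CellTiter-Glo One luminescence normalised per plate to DMSO and cell-free wells was fitted with a four-parameter log-logistic model over log10 doses. Area under the curve was integrated from this fit by trapezoidal rule, with curves beyond full viability scaled and failed quality-control curves removed.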

[5] = test system: P12-Ichikawa; assay: as above
Outline: as §2

[6] = test system: SEM cells; assay: as above
Outline: as §2

CC(=O)O.Cc1c(-c2ccc(O)cc2)n(Cc2ccc(OCCN3CCCCCC3)cc2)c2ccc(O)cc12
cell viability [%]
Details	[1]	[2]	[3]
HPLM + 10% dialyzed FBS, 0.000781 µM	95.5	103	88.5
HPLM + 10% dialyzed FBS, 0.00234 µM	106	101	50
HPLM + 10% dialyzed FBS, 0.00702 µM	92.7	99.2	91.9
HPLM + 10% dialyzed FBS, 0.0211 µM	95.6	98.1	92
HPLM + 10% dialyzed FBS, 0.0632 µM	89.6	101	99.7
HPLM + 10% dialyzed FBS, 0.19 µM	102	111	112
HPLM + 10% dialyzed FBS, 0.569 µM	111	101	102
HPLM + 10% dialyzed FBS, 1.71 µM	103	106	101
HPLM + 10% dialyzed FBS, 5.12 µM	106	106	93.5
HPLM + 10% dialyzed FBS, 15.4 µM	94.1	101	117
HPLM + 10% dialyzed FBS, 46.1 µM	92.5	100	99.5
RPMI 5 mM glucose + 10% FBS, 0.000781 µM	86.3	92.3	92
RPMI 5 mM glucose + 10% FBS, 0.00234 µM	103	92.5	46.9
RPMI 5 mM glucose + 10% FBS, 0.00702 µM	92.3	92.4	89
RPMI 5 mM glucose + 10% FBS, 0.0211 µM	92.7	87.6	98.7
RPMI 5 mM glucose + 10% FBS, 0.0632 µM	88.5	99.3	86.6
RPMI 5 mM glucose + 10% FBS, 0.19 µM	105	103	95.4
RPMI 5 mM glucose + 10% FBS, 0.569 µM	92.3	96.1	89.2
RPMI 5 mM glucose + 10% FBS, 1.71 µM	87.5	109	95.5
RPMI 5 mM glucose + 10% FBS, 5.12 µM	96.5	101	86.9
RPMI 5 mM glucose + 10% FBS, 15.4 µM	93.9	100	92.5
RPMI 5 mM glucose + 10% FBS, 46.1 µM	88.6	101	94.4
RPMI 5 mM glucose + 10% dialyzed FBS, 0.000781 µM	97.5	89.2	90.2
RPMI 5 mM glucose + 10% dialyzed FBS, 0.00234 µM	97.9	94.5	41.7
RPMI 5 mM glucose + 10% dialyzed FBS, 0.00702 µM	91.4	96.3	93.8
RPMI 5 mM glucose + 10% dialyzed FBS, 0.0211 µM	96	94.5	99.6
RPMI 5 mM glucose + 10% dialyzed FBS, 0.0632 µM	99.2	92.5	81.2
RPMI 5 mM glucose + 10% dialyzed FBS, 0.19 µM	107	98.9	102
RPMI 5 mM glucose + 10% dialyzed FBS, 0.569 µM	103	98.3	101
RPMI 5 mM glucose + 10% dialyzed FBS, 1.71 µM	98.1	95.4	94.1
RPMI 5 mM glucose + 10% dialyzed FBS, 5.12 µM	102	113	110
RPMI 5 mM glucose + 10% dialyzed FBS, 15.4 µM	101	104	119
RPMI 5 mM glucose + 10% dialyzed FBS, 46.1 µM	86.7	100	101

AUC of viability dose-response curve
Details	[4]	[5]	[6]
HPLM + 10% dialyzed FBS	472	472	449
RPMI 5 mM glucose + 10% FBS	446	459	423
RPMI 5 mM glucose + 10% dialyzed FBS	469	446	418
